Tests used:
[1] = In vitro binding to hydroxyapatite; settings: 20 mg hydroxyapatite in saline, 10 min at room temperature
In short: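 Binding is given as the percentage of ^68Ga activity retained by hydroxyapatite, measured by gamma counting of the solid versus the pooled supernatant and saline washes. The tracer (1 μCi) was exposed for 10 min at room temperature to hydroxyapatite pre-soaked 24 h in isotonic saline.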

[2] = In vivo biodistribution in mice; set-up: species or system normal CD-1 male mice; settings: iv
In short: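 Uptake values are % injected dose per gram of wet tissue, from gamma counting of weighed organs with tibia plus femur taken as bone. Tracers (20-30 μCi per animal) were given i.v. to healthy male CD-1 mice (25-30 g), with sacrifice at 2, 30, 60 and 120 min post injection.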

SMILES: O=C([O-])CN(CCN(CC(=O)[O-])Cc1cc(CCC(=O)NC(P(=O)(O)O)P(=O)(O)O)ccc1[O-])Cc1cc(CCC(=O)NC2C(O)OC(CO)C(O)C2O)ccc1[O-].[68Ga+3] (centres unmarked) [[^68Ga]1b]
- Hydroxyapatite Binding (%) [1]: 91.7 ± 5.6%
- bone to blood ratio ([2]; 2 min): 0.9
- bone to muscle ratio ([2]; 2 min): 4.7
- Biodistribution: Blood ([2]; 2 min post injection): 9.22 ± 0.83 % dose/g
- Biodistribution: Bone ([2]; 2 min post injection): 8.34 ± 0.88 % dose/g
- Biodistribution: Brain ([2]; 2 min post injection): 0.20 ± 0.04 % dose/g
- Biodistribution: Heart ([2]; 2 min post injection): 3.01 ± 0.23 % dose/g
- Biodistribution: Kidney ([2]; 2 min post injection): 18.5 ± 2.45 % dose/g
- Biodistribution: Liver ([2]; 2 min post injection): 2.58 ± 0.22 % dose/g
- Biodistribution: Lung ([2]; 2 min post injection): 5.11 ± 0.28 % dose/g
- Biodistribution: Muscle ([2]; 2 min post injection): 1.79 ± 0.28 % dose/g
- Biodistribution: Pancreas ([2]; 2 min post injection): 1.51 ± 0.06 % dose/g
- Biodistribution: Skin ([2]; 2 min post injection): 2.55 ± 0.58 % dose/g
- Biodistribution: Spleen ([2]; 2 min post injection): 2.03 ± 0.13 % dose/g
- bone to blood ratio ([2]; 30 min): 20
- bone to muscle ratio ([2]; 30 min): 68
- Biodistribution: Blood ([2]; 30 min (0.5 hr) post injection): 0.83 ± 0.04 % dose/g
- Biodistribution: Bone ([2]; 30 min (0.5 hr) post injection): 16.6 ± 1.37 % dose/g
- Biodistribution: Brain ([2]; 30 min (0.5 hr) post injection): 0.03 ± 0.01 % dose/g
- Biodistribution: Heart ([2]; 30 min (0.5 hr) post injection): 0.62 ± 0.04 % dose/g
- Biodistribution: Kidney ([2]; 30 min (0.5 hr) post injection): 3.21 ± 1.59 % dose/g
- Biodistribution: Liver ([2]; 30 min (0.5 hr) post injection): 1.20 ± 0.10 % dose/g
- Biodistribution: Lung ([2]; 30 min (0.5 hr) post injection): 1.31 ± 0.29 % dose/g
- Biodistribution: Muscle ([2]; 30 min (0.5 hr) post injection): 0.24 ± 0.03 % dose/g
- Biodistribution: Pancreas ([2]; 30 min (0.5 hr) post injection): 0.24 ± 0.02 % dose/g
- Biodistribution: Skin ([2]; 30 min (0.5 hr) post injection): 0.60 ± 0.02 % dose/g
- Biodistribution: Spleen ([2]; 30 min (0.5 hr) post injection): 0.75 ± 0.22 % dose/g
- bone to blood ratio ([2]; 60 min): 50
- bone to muscle ratio ([2]; 60 min): 147
- Biodistribution: Blood ([2]; 60 min (1 hr) post injection): 0.39 ± 0.06 % dose/g
- Biodistribution: Bone ([2]; 60 min (1 hr) post injection): 19.4 ± 2.05 % dose/g
- Biodistribution: Brain ([2]; 60 min (1 hr) post injection): 0.02 ± 0.01 % dose/g
- Biodistribution: Heart ([2]; 60 min (1 hr) post injection): 0.37 ± 0.02 % dose/g
- Biodistribution: Kidney ([2]; 60 min (1 hr) post injection): 2.65 ± 0.44 % dose/g
- Biodistribution: Liver ([2]; 60 min (1 hr) post injection): 1.15 ± 0.13 % dose/g
- Biodistribution: Lung ([2]; 60 min (1 hr) post injection): 0.96 ± 0.05 % dose/g
- Biodistribution: Muscle ([2]; 60 min (1 hr) post injection): 0.13 ± 0.01 % dose/g
- Biodistribution: Pancreas ([2]; 60 min (1 hr) post injection): 0.11 ± 0.01 % dose/g
- Biodistribution: Skin ([2]; 60 min (1 hr) post injection): 0.26 ± 0.04 % dose/g
- Biodistribution: Spleen ([2]; 60 min (1 hr) post injection): 0.66 ± 0.15 % dose/g
- bone to blood ratio ([2]; 120 min): 82
- bone to muscle ratio ([2]; 120 min): 197
- Biodistribution: Blood ([2]; 120 min post injection): 0.21 ± 0.06 % dose/g
- Biodistribution: Bone ([2]; 120 min post injection): 17.1 ± 3.70 % dose/g
- Biodistribution: Brain ([2]; 120 min post injection): 0.02 ± 0.01 % dose/g
- Biodistribution: Heart ([2]; 120 min post injection): 0.28 ± 0.04 % dose/g
- Biodistribution: Kidney ([2]; 120 min post injection): 2.71 ± 0.17 % dose/g
- Biodistribution: Liver ([2]; 120 min post injection): 1.22 ± 0.07 % dose/g
- Biodistribution: Lung ([2]; 120 min post injection): 0.86 ± 0.03 % dose/g
- Biodistribution: Muscle ([2]; 120 min post injection): 0.09 ± 0.01 % dose/g
- Biodistribution: Pancreas ([2]; 120 min post injection): 0.08 ± 0.01 % dose/g
- Biodistribution: Skin ([2]; 120 min post injection): 0.18 ± 0.01 % dose/g
- Biodistribution: Spleen ([2]; 120 min post injection): 0.53 ± 0.04 % dose/g

Source: patent publication US10253052B2, “HBED-bisphosphonates, radiometal conjugates and their use as theranostic agents” (Five Eleven Pharma Inc., priority 2015, dated 2019)
